“Also recorded” adds a separate entry of the source. Read-outs that look alike come from different tables or passages of the source. Square brackets hold non-standard residues; d marks the D form. Peptide text beside a SMILES is read from it. Sar = CNCC(=O)O
Assays:
MDCKI cells = assay: Effect of inhibitors on ciprofloxacin bidirectional transport in MDCKI cells; settings: 25 µM ciprofloxacin, inhibitor concentrations as in Figure 4 legend
[1] = cited from earlier work
MRP1 (L-MRP1 cells) = MRP1 (L-MRP1 cells) (Homo sapiens, UniProt P33527); assay: Bidirectional transport study in L-MRP1 cells; assay type: in vitro ADME; settings: LLC-PK1
[2] = Bidirectional transport study in MDCKI cells; assay type: in vitro ADME, canine; settings: dog, MDCK
in vitro = settings: human, MDCK-MDR1
P-gp (L-MDR1 cells) [3] = target: T1, P-gp (L-MDR1 cells) (Homo sapiens, UniProt P08183); assay: Bidirectional transport study in L-MDR1 cells; assay type: in vitro ADME; settings: LLC-PK1
[4] = Bidirectional transport study in LLC-PK1 cells; assay type: in vitro ADME; settings: pig
[5] = humans; cited from earlier work
OAT3 = settings: cited from earlier work
P-gp (MDCKI-MDR1 cells) [6] = settings: MDCKI-MDR1 and L-MDR1 cells; cited from earlier work
P-gp (MDCKII-MDR1 cells) = P-gp (MDCKII-MDR1 cells) (Homo sapiens, UniProt P08183); settings: MDCKII vs MDCKII-MDR1; cited from earlier work
P-gp (L-MDR1 cells) [7] = target: T1, P-gp (L-MDR1 cells); settings: LLC-PK1 vs L-MDR1, cited from earlier work
P-gp (MDCKI-MDR1 cells) [8] = settings: studies done in our lab

T1 sequence (P08183 whole entry): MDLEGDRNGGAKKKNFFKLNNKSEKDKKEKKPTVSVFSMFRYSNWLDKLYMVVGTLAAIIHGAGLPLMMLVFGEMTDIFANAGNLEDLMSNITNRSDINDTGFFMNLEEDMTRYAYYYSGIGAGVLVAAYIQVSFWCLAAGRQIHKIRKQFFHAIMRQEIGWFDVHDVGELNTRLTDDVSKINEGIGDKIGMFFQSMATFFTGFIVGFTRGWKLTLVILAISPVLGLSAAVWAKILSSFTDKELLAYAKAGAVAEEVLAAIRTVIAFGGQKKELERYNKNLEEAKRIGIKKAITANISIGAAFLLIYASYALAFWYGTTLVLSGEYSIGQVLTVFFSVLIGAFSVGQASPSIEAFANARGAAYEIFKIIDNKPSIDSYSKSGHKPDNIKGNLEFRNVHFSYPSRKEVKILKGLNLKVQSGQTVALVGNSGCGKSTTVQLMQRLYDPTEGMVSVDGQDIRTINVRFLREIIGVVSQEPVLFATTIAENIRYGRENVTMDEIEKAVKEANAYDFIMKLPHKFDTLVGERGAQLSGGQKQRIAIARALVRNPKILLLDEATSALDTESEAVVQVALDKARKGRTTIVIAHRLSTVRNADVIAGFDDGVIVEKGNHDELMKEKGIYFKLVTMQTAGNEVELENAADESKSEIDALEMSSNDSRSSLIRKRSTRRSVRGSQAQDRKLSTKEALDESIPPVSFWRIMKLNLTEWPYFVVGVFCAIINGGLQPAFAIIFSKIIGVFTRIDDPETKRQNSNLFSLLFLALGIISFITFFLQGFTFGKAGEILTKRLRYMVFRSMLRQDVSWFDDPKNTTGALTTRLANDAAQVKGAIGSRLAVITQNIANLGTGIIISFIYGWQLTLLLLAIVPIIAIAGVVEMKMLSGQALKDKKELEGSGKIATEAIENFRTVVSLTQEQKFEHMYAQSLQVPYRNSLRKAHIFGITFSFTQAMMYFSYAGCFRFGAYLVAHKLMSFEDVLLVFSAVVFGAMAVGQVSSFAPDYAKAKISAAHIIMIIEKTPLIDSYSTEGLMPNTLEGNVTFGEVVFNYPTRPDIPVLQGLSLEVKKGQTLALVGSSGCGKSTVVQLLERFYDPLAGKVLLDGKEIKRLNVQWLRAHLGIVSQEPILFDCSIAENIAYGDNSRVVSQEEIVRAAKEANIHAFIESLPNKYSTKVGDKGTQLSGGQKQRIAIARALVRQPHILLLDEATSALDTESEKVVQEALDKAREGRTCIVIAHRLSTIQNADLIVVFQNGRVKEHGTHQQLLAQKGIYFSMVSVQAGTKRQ
MRP1 (L-MRP1 cells), sequence (P33527 whole entry): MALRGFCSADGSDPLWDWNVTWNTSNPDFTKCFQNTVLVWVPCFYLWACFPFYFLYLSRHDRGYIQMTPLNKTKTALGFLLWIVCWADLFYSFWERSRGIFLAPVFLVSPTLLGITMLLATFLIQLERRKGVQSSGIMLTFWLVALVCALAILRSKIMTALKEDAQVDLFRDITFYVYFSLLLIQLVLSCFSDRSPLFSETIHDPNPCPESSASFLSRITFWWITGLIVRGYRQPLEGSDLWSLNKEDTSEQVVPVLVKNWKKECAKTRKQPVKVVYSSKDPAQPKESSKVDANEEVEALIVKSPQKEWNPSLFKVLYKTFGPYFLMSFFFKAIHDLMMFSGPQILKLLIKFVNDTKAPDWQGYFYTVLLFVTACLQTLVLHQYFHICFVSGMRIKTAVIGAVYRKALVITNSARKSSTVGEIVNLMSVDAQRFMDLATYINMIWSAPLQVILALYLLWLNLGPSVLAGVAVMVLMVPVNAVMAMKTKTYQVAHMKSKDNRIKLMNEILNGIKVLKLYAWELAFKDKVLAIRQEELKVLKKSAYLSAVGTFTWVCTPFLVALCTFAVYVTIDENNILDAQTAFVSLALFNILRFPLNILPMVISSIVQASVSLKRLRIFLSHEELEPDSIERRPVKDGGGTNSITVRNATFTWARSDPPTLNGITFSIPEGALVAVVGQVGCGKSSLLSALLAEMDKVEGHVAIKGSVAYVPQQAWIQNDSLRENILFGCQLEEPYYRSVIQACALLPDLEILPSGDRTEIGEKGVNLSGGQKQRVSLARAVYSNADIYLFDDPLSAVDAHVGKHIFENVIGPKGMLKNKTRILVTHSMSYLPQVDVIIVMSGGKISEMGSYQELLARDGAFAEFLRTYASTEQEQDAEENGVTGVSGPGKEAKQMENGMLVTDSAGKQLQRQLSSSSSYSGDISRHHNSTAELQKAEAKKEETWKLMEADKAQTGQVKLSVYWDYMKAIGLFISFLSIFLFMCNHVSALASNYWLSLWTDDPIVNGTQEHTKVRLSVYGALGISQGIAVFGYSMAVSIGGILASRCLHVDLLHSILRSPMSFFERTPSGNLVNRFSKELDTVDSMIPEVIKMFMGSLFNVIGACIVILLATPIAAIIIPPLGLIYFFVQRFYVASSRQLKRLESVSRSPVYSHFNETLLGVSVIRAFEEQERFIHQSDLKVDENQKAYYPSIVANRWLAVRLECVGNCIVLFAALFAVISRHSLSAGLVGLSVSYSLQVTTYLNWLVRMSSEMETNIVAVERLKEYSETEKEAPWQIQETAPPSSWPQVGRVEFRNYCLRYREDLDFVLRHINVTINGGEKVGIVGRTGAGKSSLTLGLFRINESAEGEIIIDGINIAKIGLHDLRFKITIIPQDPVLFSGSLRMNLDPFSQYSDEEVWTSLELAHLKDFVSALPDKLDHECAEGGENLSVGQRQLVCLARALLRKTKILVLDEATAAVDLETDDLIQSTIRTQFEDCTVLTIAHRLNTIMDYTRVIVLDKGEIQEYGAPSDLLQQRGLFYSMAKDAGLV
P-gp (MDCKII-MDR1 cells), sequence (P08183 whole entry): as the sequence (P08183 whole entry) above

COc1cc2c(cc1OC)CN(CCc1ccc(NC(=O)c3cccc4c(=O)c5cccc(OC)c5[nH]c34)cc1)CC2 [GG918]
effect on ciprofloxacin transport in MDCKI cells (in words) (MDCKI cells): no significant effects

O=C(O)c1cn(C2CC2)c2cc(N3CCNCC3)c(F)cc2c1=O [ciprofloxacin]
eliminated via intestinal secretion [1]: at least 10%

CN(CC(=O)O)C(=O)CN [glycosarcosine] (H-Gly-[Sar]-OH)
effect on ciprofloxacin transport in MDCKI cells (in words) (MDCKI cells): no significant effects; also recorded: no effect

OC[C@@H](O)[C@@H](O)[C@H](O)[C@H](O)CO [mannitol]
Papp at 1 h (MRP1 (L-MRP1 cells)): ~3.5 ×10⁻⁶ cm/s
Papp at 1 h [2]: ~0.5 ×10⁻⁶ cm/s
Papp at 1 h (in vitro): ~0.5 ×10⁻⁶ cm/s
Papp at 1 h (P-gp (L-MDR1 cells) [3]): ~1.2 ×10⁻⁶ cm/s
Papp at 1 h [4]: ~1.3 ×10⁻⁶ cm/s

CCCN(CCC)S(=O)(=O)c1ccc(C(=O)O)cc1 [probenecid]
effect on ciprofloxacin renal secretion [5]: competitively inhibit
interaction with OAT3 (OAT3): inhibitor of OAT3

C=C[C@H]1C[N@@]2CC[C@H]1C[C@@H]2[C@@H](O)c1ccnc2ccc(OC)cc12 [quinidine]
effect on ciprofloxacin transport in MDCKI cells (in words) (MDCKI cells): no significant effects

COc1cc(Cc2cnc(N)nc2N)cc(OC)c1OC [trimethoprim]
P-gp substrate status from transport studies (P-gp (MDCKI-MDR1 cells) [6]): substrate of P-gp
difference in transport between MDCKII and MDCKII-MDR1 cells (P-gp (MDCKII-MDR1 cells)): no difference

CC[C@]1(O)C[C@@H]2CN(CCc3c([nH]c4ccccc34)[C@@](C(=O)OC)(c3cc4c(cc3OC)N(C)[C@H]3[C@@](O)(C(=O)OC)[C@H](OC(C)=O)[C@]5(CC)C=CCN6CC[C@]43[C@@H]65)C2)C1 [vinblastine]
difference in transport between LLC-PK1 and L-MDR1 cells (P-gp (L-MDR1 cells) [7]): no difference
difference in transport between LLC-PK1 and L-MDR1 cells (P-gp (L-MDR1 cells) [7]; listed as Vinblastine): did not show differences
effect on ciprofloxacin transport in MDCKI cells (in words) (MDCKI cells): no significant effects
P-gp substrate status from transport studies (P-gp (MDCKI-MDR1 cells) [8]): substrate of P-gp

Source: paper PMC3084506 (Archives of Drug Information, 2011)
